System: gene expression in Col-0 seedling shoots
Test: Microarray analysis (ATH1 Affymetrix) after BL or abrasin treatment
Assay type: in vivo, Arabidopsis
Method: FIG. 14: Clustering of gene expression profiles by QT-clust analysis. Clusters illustrating the major patterns of the data sets. Points: BIK-30: 30 μM abrasin 30 min; BL-30: 1 μM brassinolide 30 min; DMSO-30: control DMSO 30 min; BIK-120: 30 μM abrasin 120 min; BL-120: 1 μM brassinolide 120 min; DMSO-120: control DMSO 120 min.
Col-0 seeds were germinated vertically on ½ MS medium for 7 days under 16 h light/8 h dark cycles. The seedlings were overlaid with liquid ½ MS medium containing 1 μM brassinolide (BL, Fuji Chemical Industries, Ltd., Toyama, Japan), 30 μM abrasin (BIK, ChemBridge Corporation) and DMSO and treated for 30 and 120 min. The shoot parts were collected for RNA isolation. All sampling points were performed in three independent experiments. RNA was extracted using RNeasy kit (Qiagene). […] total RNA per array was used to hybridise the ATH1 Affymetrix Arabidopsis arrays according to standard procedure. The overrepresentation analyses were performed using BiNGO software (Maere et al., 2005).
We performed a microarray analysis using the Arabidopsis whole genome chip (Affymetix) to determine whether abrasin activated the expression of BR-inducible genes at transcriptional level. Wild-type Col-0 seedlings were exposed to 1 μM BL, 30 μM ABRASIN and DMSO (mock-treatment) for two time points (30 min and 120 min) and the shoot parts were collected for RNA isolation. The analysis of the variance of the normalized gene expression data took in account the variability parameters affecting the expression level: type of hormone treatment, duration of treatment and the interaction between these two.

CC(C)[C@H](C)[C@@H](O)[C@H](O)[C@@H](C)[C@H]1CC[C@H]2[C@@H]3COC(=O)[C@H]4C[C@H](O)[C@H](O)C[C@]4(C)[C@H]3CC[C@]12C [BL, brassinolide, reference compound]
expression of BR biosynthesis genes (CPD, DWF4, BR6OX2), Cluster 1 (1 μM BL, 30 μM ABRASIN): down-regulated | expression of genes involved in the auxin pathway (IAA29, IAA2) (1 μM BL, 30 μM ABRASIN): significantly down-regulated | induction of early auxin-inducible SAUR family genes, Cluster 3 (1 μM BL, 30 μM ABRASIN, 30 and 120 min): induced by BL as faster as 30 min treatment | Fold-change AT1G04330 expressed protein (30 min): 1.04 | Fold-change AT1G05470 endonuclease/exonuclease/phosphatase family protein (30 min): 1.04 | Fold-change AT1G06520 Encodes a membrane associated mitochondrial localized protein (30 min): 1.57 | Fold-change AT1G06570 4-hydroxyphenylpyruvate dioxygenase (HPD) (30 min): 0.87 | Fold-change AT1G10550 xyloglucan:xyloglucosyl transferase (30 min): 1.34 | Fold-change AT1G12710 F-box family protein (30 min): 1.26 | Fold-change AT1G12750 rhomboid family protein (30 min): 1.15 | Fold-change AT1G14130 2-oxoglutarate-dependent dioxygenase (30 min): 1.26 | Fold-change AT1G14700 purple acid phosphatase (30 min): 0.73 | Fold-change AT1G16640 transcriptional factor B3 family protein (30 min): 1.02 | Fold-change AT1G17230 leucine-rich repeat family protein (30 min): 1.08 | Fold-change AT1G18020; AT1G17990 [AT1G18020, 12-oxophytodienoate reductase, (30 min): 0.80 | Fold-change AT1G19320 pathogenesis-related thaumatin family protein (30 min): 0.81 | Fold-change AT1G20350 mitochondrial import inner membrane translocase subunit (30 min): 0.99 | Fold-change AT1G21050 expressed protein (30 min): 0.72 | Fold-change AT1G21760 F-box family protein (30 min): 1.02 | Fold-change AT1G22360 UDP-glucoronosyl/UDP-glucosyl transferase family protein (30 min): 0.94 | Fold-change AT1G23080 auxin efflux carrier protein (PIN7) (30 min): 0.89 | Fold-change AT1G26800 zinc finger (C3HC4-type RING finger) family protein, (30 min): 1.51 | Fold-change AT1G27730 zinc finger (C2H2 type) family protein (30 min): 0.18 | Fold-change AT1G28130 encodes an IAA-amido synthase (30 min): 0.85 | Fold-change AT1G28190 expressed protein (30 min): 0.66 | Fold-change AT1G28480 glutaredoxin family protein (30 min): 0.99 | Fold-change AT1G31040 zinc-binding protein-related (30 min): 0.88 | Fold-change AT1G31310 hydroxyproline-rich glycoprotein family protein (30 min): 0.85 | Fold-change AT1G31770 ABC transporter family protein (30 min): 0.99 | Fold-change AT1G32190 expressed protein (30 min): 1.00 | Fold-change AT1G32690 expressed protein (30 min): 0.92 | Fold-change AT1G36940 expressed protein (30 min): 0.89 | Fold-change AT1G49780 U-box domain-containing protein (30 min): 0.53 | Fold-change AT1G53870; AT1G53890 [AT1G53870, expressed protein (30 min): 0.89 | Fold-change AT1G54050 17.4 kDa class III heat shock protein (HSP17.4-CIII) (30 min): 1.09 | Fold-change AT1G54200 expressed protein (30 min): 1.16 | Fold-change AT1G55920 serine O-acetyltransferase (30 min): 1.04 | Fold-change AT1G57560 myb family transcription factor (MYB50) (30 min): 1.04 | Fold-change AT1G59590 expressed protein (30 min): 0.95 | Fold-change AT1G59660 nucleoporin family proteinmily (30 min): 1.67 | Fold-change AT1G62300 WRKY family transcription factor (30 min): 0.63 | Fold-change AT1G63050 membrane bound O-acyl transferase (MBOAT) family protein (30 min): 0.98 | Fold-change AT1G66160 U-box domain-containing protein, (30 min): 1.10 | Fold-change AT1G66890 expressed protein (30 min): 0.72 | Fold-change AT1G68330 expressed protein (30 min): 0.90 | Fold-change AT1G68810 basic helix-loop-helix (bHLH) family protein (30 min): 1.11 | Fold-change AT1G69160 expressed protein (30 min): 1.06 | Fold-change AT1G70990 proline-rich family protein (30 min): 1.59 | Fold-change AT1G71030 Encodes a putative myb family transcription factor (30 min): 0.84 | Fold-change AT1G72060 expressed protein (30 min): 0.96 | Fold-change AT1G72180 leucine-rich repeat transmembrane protein kinase (30 min): 0.87 | Fold-change AT1G72800 nuM1-related, contains (30 min): 1.08 | Fold-change AT1G75270 dehydroascorbate reductase (30 min): 1.27 | Fold-change AT1G75500 nodulin MtN21 family protein (30 min): 0.91 | Fold-change AT1G76240 expressed protein, (30 min): 0.57 | Fold-change AT1G76410 zinc finger (C3HC4-type RING finger) (30 min): 1.61 | Fold-change AT1G79110 expressed protein (30 min): 1.09 | Fold-change AT1G79630 protein phosphatase 2C family protein (30 min): 0.78 | Fold-change AT1G80440 kelch repeat-containing F-box family protein (30 min): 1.71 | Fold-change AT2G01300 expressed protein (30 min): 1.16 | Fold-change AT2G01990 expressed protein, (30 min): 0.91 | Fold-change AT2G04240 zinc finger (C3HC4-type RING finger) family protein (30 min): 1.46 | Fold-change AT2G05540 glycine-rich protein (30 min): 0.92 | Fold-change AT2G12290; AT4G19700 [AT2G12290, expressed protein]; [AT4G19700, expressed protein] (30 min): 0.80 | Fold-change AT2G18010 auxin-responsive family protein (SAUR10) (30 min): 1.60 | Fold-change AT2G19800 expressed protein (30 min): 1.20 | Fold-change AT2G22860 phytosulfokines 2 (PSK2) (30 min): 0.86 | Fold-change AT2G23180 cytochrome P450, putative (30 min): 1.10 | Fold-change AT2G23320 WRKY family transcription factor (30 min): 0.86 | Fold-change AT2G26530 expressed protein (30 min): 0.41 | Fold-change AT2G26710 cytochrome p450 family (BAS1) (30 min): 1.56 | Fold-change AT2G28510 Dof-type zinc finger domain-containing protein (30 min): 0.94 | Fold-change AT2G29340 short-chain dehydrogenase/reductase (SDR) family protein (30 min): 0.85 | Fold-change AT2G29990 pyridine nucleotide-disulphide oxidoreductase family protein (30 min): 0.94 | Fold-change AT2G30070 potassium transporter (KUP1) (30 min): 0.81 | Fold-change AT2G31230 encodes a member of the ERF (ethylene response factor) (30 min): 1.66 | Fold-change AT2G34650 protein kinase PINOID (PID) (30 min): 1.54 | Fold-change AT2G36220 expressed protein (30 min): 1.18 | Fold-change AT2G37590 Dof-type zinc finger domain-containing protein (30 min): 0.90 | Fold-change AT2G38470 WRKY family transcription factor (30 min): 0.38 | Fold-change AT2G39710 aspartyl protease family protein (30 min): 1.25 | Fold-change AT2G40340; AT2G40350 [AT2G40340, encodes a member of the DREB subfamily A-2 of ERF/AP2 (30 min): 1.16 | Fold-change AT2G41250 haloacid dehalogenase-like hydrolase family protein (30 min): 0.91 | Fold-change AT2G41640 expressed protein (30 min): 0.84 | Fold-change AT2G42280 basic helix-loop-helix (bHLH) family protein (30 min): 0.98 | Fold-change AT2G43060 expressed protein, similar to cDNA bHLH transcription factor (30 min): 0.25 | Fold-change AT2G43280 far-red impaired responsive family protein (30 min): 0.84 | Fold-change AT2G43290 calmodulin-like protein (MSS3) (30 min): 1.24 | Fold-change AT2G44130 kelch repeat-containing F-box family protein (30 min): 1.63 | Fold-change AT2G44500 expressed protein (30 min): 1.16 | Fold-change AT2G45210 auxin-responsive protein-related (30 min): 0.77 | Fold-change AT2G45680 TCP family transcription factor (30 min): 0.91 | Fold-change AT2G46225 Encodes a subunit of the WAVE complex (30 min): 0.97 | Fold-change AT2G47440 DNAJ heat shock N-terminal domain-containing protein (30 min): 1.31 | Fold-change AT3G04210 disease resistance protein (TIR-NBS class), putative, (30 min): 0.89 | Fold-change AT3G09920 phosphatidylinositol-4-phosphate 5-kinase family protein (30 min): 0.94 | Fold-change AT3G12920 expressed protein (30 min): 0.81 | Fold-change AT3G13040 myb family transcription factor (30 min): 0.84 | Fold-change AT3G13510 expressed protein (30 min): 1.06 | Fold-change AT3G13980 expressed protein (30 min): 0.71 | Fold-change AT3G14370 protein kinase family protein (30 min): 2.13 | Fold-change AT3G14560 expressed protein (30 min): 0.81 | Fold-change AT3G16570 rapid alkalinization factor (RALF) family protein (30 min): 0.88 | Fold-change AT3G17860 expressed protein (30 min): 1.08 | Fold-change AT3G18830 polyol/cyclitol/monosaccharide-H+-symporte (30 min): 1.11 | Fold-change AT3G19380 U-box domain-containing protein (30 min): 0.70 | Fold-change AT3G23030 auxin-responsive protein/indoleacetic acid-induced protein 2 (IAA2) (30 min): 0.66 | Fold-change AT3G23550 MATE efflux family protein (30 min): 0.84 | Fold-change AT3G25710 basic helix-loop-helix (bHLH) family protein (30 min): 1.06 | Fold-change AT3G25900 homocysteine S-methyltransferase 1 (HMT-1) (30 min): 1.17 | Fold-change AT3G26910 hydroxyproline-rich glycoprotein family protein (30 min): 1.08 | Fold-change AT3G30180 cytochrome p450 enzyme (30 min): 0.31 | Fold-change AT3G46880 expressed protein, (30 min): 0.84 | Fold-change AT3G47800 aldose 1-epimerase family protein (30 min): 1.06 | Fold-change AT3G48970 copper-binding family protein (30 min): 0.97 | Fold-change AT3G49810 U-box domain-containing protein (30 min): 0.89 | Fold-change AT3G50650 scarecrow-like transcription factor 7 (SCL7) (30 min): 1.17 | Fold-change AT3G50660 steroid 22-alpha-hydroxylase (CYP90B1) (DWF4) (30 min): 0.47 | Fold-change AT3G50750 brassinosteroid signalling positive regulator-related (BEH1) (30 min): 0.99 | Fold-change AT3G52490 heat shock protein-related (30 min): 0.93 | Fold-change AT3G53810 lectin protein kinase (30 min): 0.80 | Fold-change AT3G54950 patatin-related, (30 min): 0.86 | Fold-change AT3G55120 chalcone-flavanone isomerase (30 min): 0.98 | Fold-change AT3G55150 exocyst subunit EXO70 family protein (30 min): 0.75 | Fold-change AT3G55840 expressed protein (30 min): 1.06 | Fold-change AT3G61460 zinc finger (C3HC4-type RING finger) family protein (BRH1) (30 min): 0.78 | Fold-change AT3G63300 expressed protein (30 min): 1.02 | Fold-change AT4G01680 myb family transcription factor (MYB55) (30 min): 0.51 | Fold-change AT4G02410 lectin protein kinase family protein (30 min): 0.66 | Fold-change AT4G08040 1-aminocyclopropane-1-carboxylate synthase, putative (30 min): 0.13 | Fold-change AT4G09460 myb family transcription factor (30 min): 1.30 | Fold-change AT4G12390 invertase/pectin methylesterase inhibitor family protein (30 min): 0.96 | Fold-change AT4G12410 auxin-responsive family protein (30 min): 1.02 | Fold-change AT4G14130 xyloglucan:xyloglucosyl transferase (30 min): 0.85 | Fold-change AT4G15975 zinc finger (C3HC4-type RING finger) family protein (30 min): 1.10 | Fold-change AT4G16146 expressed protein (30 min): 0.82

Reference: patent publication US8273775B2, “Non-steroidal brassinosteroid mimetic” (priority 2006, dated 2012)
